The source of these data is patent publication US4616003A, “N^6 -dihydroxypropyladenosines” (Warner-Lambert Company, priority 1985, dated 1986).

Test [1] has as its system Swiss-Webster male mice. The experiment in a line: Mouse Activity and Screen Test (MAST): screen test failure. Format: in vivo. The note with it: 1 hour prior to testing. The protocol:
Nine unfasted Swiss-Webster male mice weighing 20-30 g are equally divided into three groups for each drug dose to be tested. That is, data for each dose level was generated by three separate groups of three mice each. A minimum of three dose levels (10, 30, and 100 mg/kg) are tested for each drug. Treatments are administered intraperitoneally one hour prior to testing. All dosages are calculated as parent compound and given in volumes of 10 ml/kg. Compounds are dissolved or suspended in 0.2% Methocel. Control animals are injected with Methocel. Testing: A two part testing procedure is started one hour postinjection. First, the screen test (ST) is performed (see Pharmac. Biochem. Behav. 6, 351-353, 1977). Briefly this test consists of placing mice on individual wire screens which are then rotated 180 degrees at the start of a 60 second observation period. The number of mice falling off the inverted screen is recorded. Data: The data obtained from the screen test are expressed as percent of mice falling off the screen. Data derived from locomotor activity of drug treated mice are compared to the activity of vehicle treated animals and are expressed as percent inhibition of spontaneous locomotion. All percentages reported for inhibition of locomotion (LI) are based upon data accumulated for one hour. Both phases of testing are graded: A=60-100%; C=31-59%; and N=0-30%. An overall dose rating is obtained by the following criteria: […]

Test [2] deals with T1, adenosine A1 receptor (Rattus norvegicus, UniProt P25099).
T1 construct: Whole brain minus cerebellum and brainstem from male Long Evans rats (150-200 g) was homogenized; from tissue; host or cells: rat whole brain minus cerebellum and brainstem, male Long Evans
T1 sequence (P25099 1-326): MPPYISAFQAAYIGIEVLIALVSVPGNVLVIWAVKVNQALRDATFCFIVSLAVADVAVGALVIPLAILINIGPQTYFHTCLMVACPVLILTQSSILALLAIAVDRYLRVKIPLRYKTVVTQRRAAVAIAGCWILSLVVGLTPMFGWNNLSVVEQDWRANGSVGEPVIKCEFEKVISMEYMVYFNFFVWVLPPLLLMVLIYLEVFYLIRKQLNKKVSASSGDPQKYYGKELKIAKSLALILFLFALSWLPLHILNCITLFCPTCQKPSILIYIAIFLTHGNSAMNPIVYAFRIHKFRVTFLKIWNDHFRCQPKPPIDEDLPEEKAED
The experiment in a line: Adenosine A1 receptor binding (RBA-1), displacement of [3H]-CHA. Here is the method:
Whole brain minus cerebellum and brainstem from male Long Evans rats (150-200 g) was homogenized in 30 volumes of ice-cold 0.05M Tris-HCl buffer pH 7.7 using a Brinkman Polytron PT-10, (setting number 6 for 20 seconds) and centrifuged for ten minutes at 20,000×g (Sorvall RC-2), 4° C. The supernatant was discarded, and the pellet was resuspended and centrifuged as before. The pellet was resuspended in 20 ml Tris-HCl buffer containing two International Units/ml of adenosine deaminase (Sigma type III from calf intestinal mucosa), incubated at 37° C. for 30 minutes, then subsequently at 0° C. for ten minutes. The homogenate was again centrifuged, and the final pellet was resuspended in ice-cold 0.05M Tris-HCl buffer pH 7.7 to a concentration of 20 mg/ml original wet tissue weight and used immediately.
Tissue homogenate (10 mg/ml) was incubated in 0.05M Tris-HCl buffer pH 7.7 containing 1.0 nM [^3 H]-N^6 -cyclohexyladenosine [^3 H]-CHA) with or without test agents in triplicate for one hour at 25° C. Incubation volume was 2 ml. Unbound [^3 H]-CHA was separated by rapid filtration under reduced pressure through Whatman glass fiber (GF/B) filters. The filters were rinsed three times with 5 ml of ice cold 0.05M Tris-HCl buffer pH 7.7. The radio-labeled ligand retained on the filter was measured by liquid scintillation spectrophotometry after shaking the filters for one hour or longer on a mechanical shaker in 10 ml of Beckman Ready-Solv HP scintillation cocktail.
Nonspecific binding was defined as the binding which occurred in the presence of 1 mM theophylline. […] The Scatchard plot was calculated by linear regression of the line obtained by plotting the amount of radioligand bound (pmoles/gram of tissue) versus [formula] Since the amount of radioligand bound was a small fraction of the total amount added, free radioligand was defined as the concentration (nM) of radioligand added to the incubation mixture. The Hill coefficient was calculated by linear regression of the line obtained by plotting the log of the bound radioligand vs the log of the [formula] The maximal number of binding sites (Bmax) was calculated from the Scatchard plot.

The test system of test [3] is Swiss-Webster male mice. Put plainly: Mouse Activity and Screen Test (MAST): inhibition of spontaneous locomotor activity. Format: in vivo. The note with it: 1 hour prior to testing. The protocol: Nine unfasted Swiss-Webster male mice weighing 20-30 g are equally divided into three groups for each drug dose to be tested. That is, data for each dose level was generated by three separate groups of three mice each. A minimum of three dose levels (10, 30, and 100 mg/kg) are tested for each drug. Treatments are administered intraperitoneally one hour prior to testing. All dosages are calculated as parent compound and given in volumes of 10 ml/kg. Compounds are dissolved or suspended in 0.2% Methocel. Control animals are injected with Methocel. Immediately following the screen test, the final phase of testing is initiated by placing each group of three mice in one actophotometer (Life Sciences, 22, 1067-1076, 1978). The actophotometer consists of a cylindrical chamber whose center is occupied by another cylinder which contains the illumination for six photocells located on the perimeter of the chamber. Six light-beam interruptions equal one count. Locomotor activity is recorded by computer at ten minute intervals for 60 minutes. Data: The data obtained from the screen test are expressed as percent of mice falling off the screen. Data derived from locomotor activity of drug treated mice are compared to the activity of vehicle treated animals and are expressed as percent inhibition of spontaneous locomotion. All percentages reported for inhibition of locomotion (LI) are based upon data accumulated for one hour. Both phases of testing are graded: A=60-100%; C=31-59%; and N=0-30%. An overall dose rating is obtained by the following criteria: […]

In test [4] the target is T2, adenosine A2 receptor (Rattus norvegicus, UniProt P30543).
T2 construct: Brains were thawed and then kept on ice while the striata were dissected out; tissue Pel-Freez (Rogers, Ark.); host or cells: rat striatum (Sprague-Dawley brains; Long-Evans gave essentially identical results)
Put plainly: Adenosine A2 receptor binding (RBA-2), displacement of [3H]NECA. The protocol: Brains from 200-500 g mixed sex Sprague-Dawley rats were purchased from Pel-Freez (Rogers, Ark.). […] Brains were thawed and then kept on ice while the striata were dissected out. […] The suspension was centrifuged at 50,000 xg for ten minutes, the supernatant discarded, the pellet resuspended in 10 vol ice-cold Tris as above, recentrifuged, resuspended at 1 g/5 ml, and stored in plastic vials at -70° C. […] When needed, tissue was thawed at room temperature, disrupted in a Polytron, and kept on ice until used.
All incubations were for 60 minutes at 25° C. in 12×75 mm glass tubes containing 1 ml Tris with 5 mg original tissue weight of rat weight of rat striatal membranes, 4 nM [^3 H]-N-ethyl adenosine-5'-carboxamide ([^3 H]NECA), 50 nM N^6 -cyclopentyladenosine (to eliminate A1 receptor binding), 10 mM MgCl2, 0.1 units/ml of adenosine deaminase and 1% dimethylsulfoxide. N^6 -Cyclopentyladenosine was dissolved at 10 mM in 0.02N HCl and diluted in Tris. […] Test compounds were dissolved at 10 mM in dimethylsulfoxide on the same day as the experiment, and diluted in dimethylsulfoxide to 100× the final incubation concentration. […] [^3 H]NECA was diluted to 40 nM in Tris. The membrane suspension (5 mg/0.79 ml) contained sufficient MgCl2 and adenosine deaminase to give 10 mM and 0.1 units/ml, respectively, final concentration in the incubation. […] After all additions, the rack of tubes was vortexed, and the tubes were then incubated for 60 min at 25° C. in a shaking water bath. The rack of tubes was vortexed an additional time halfway through the incubation.
Incubations were terminated by filtration through 2.4 cm GF/B filters under reduced pressure. Each tube was filtered as follows: the contents of the tube were poured onto the filter, 4 ml of ice-cold Tris were added to the tube and the contents poured onto the filter, and the filter was washed twice with 4 ml of ice-cold Tris. The filtration was complete in about twelve seconds.
Nonspecific binding was defined as binding in the presence of 100 μM N^6 -cyclopentyladenosine, and specific binding was defined as total binding minus nonspecific binding. The IC50 was calculated by weighted nonlinear least squares curve-fitting to the mass-action equation. [formula] where Y is cpm bound
T is cpm total binding without drug
S is cpm specific binding without drug
D is the concentration of drug and
K is the IC50 of the drug
Weighting factors were calculated under the assumption that the standard deviation was proportional to the predicted value of Y. Nonspecific binding was treated as a very large (infinite) concentration of drug in the computer analysis.

Where [5] appears, read: 1.0 nM [3H]-CHA, rat whole brain minus cerebellum and brainstem, read-out: RBA-1 (IC50, adenosine A1 receptor affinity).

Structures are written as SMILES. Where two headings read alike, the source gives them in different places.

T2 sequence (P30543 whole entry): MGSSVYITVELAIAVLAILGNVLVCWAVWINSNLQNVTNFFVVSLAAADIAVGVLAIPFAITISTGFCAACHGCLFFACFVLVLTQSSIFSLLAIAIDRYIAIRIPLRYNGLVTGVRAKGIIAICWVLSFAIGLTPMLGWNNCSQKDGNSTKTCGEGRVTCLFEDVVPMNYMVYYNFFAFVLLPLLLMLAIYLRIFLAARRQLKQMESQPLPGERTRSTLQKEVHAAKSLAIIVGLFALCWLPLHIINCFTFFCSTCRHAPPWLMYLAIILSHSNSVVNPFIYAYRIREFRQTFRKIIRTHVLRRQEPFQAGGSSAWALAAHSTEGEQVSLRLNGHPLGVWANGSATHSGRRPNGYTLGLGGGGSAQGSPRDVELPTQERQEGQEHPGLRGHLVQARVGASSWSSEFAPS

On to `OC[C@H](O)CNc1ncnc2c1ncn2[C@@H]1O[C@H](CO)[C@@H](O)[C@H]1O` [Example 2, (R)-N^6-[2,3-Dihydroxypropyl]adenosine], for which the “Screen Test Failure” value in test [1] (10 mg/kg i.p.), in test [1] (30 mg/kg i.p.) and in test [1] (100 mg/kg i.p.) was 100% in each case. The IC50 (in general, the point on the concentration scale where inhibition reaches its midpoint) is 0.0078 µM in test [2] and 11 µM in test [4]. Moreover, the “Inhibition of Mouse Locomotor Activity” value in test [3] (10 mg/kg i.p.), in test [3] (30 mg/kg i.p.) and in test [3] (100 mg/kg i.p.) was 100% in each case.

With `CC1(C)OC[C@H](CNc2ncnc3c2ncn3[C@@H]2O[C@H](CO)[C@@H](O)[C@H]2O)O1` [Example 6, (S)-N^6-[2,3-Dihydroxypropylisopropylidene]adenosine], the “Screen Test Failure” value in test [1] (3.0 mg/kg i.p.), in test [1] (10 mg/kg i.p.) and in test [1] (30 mg/kg i.p.) was 0% throughout. Besides, the IC50 was 0.94 µM in test [2] (setting [5]) and 20 µM in test [4] (4 nM [3H]NECA, 50 nM N6-cyclopentyladenosine, rat striatal membranes, read-out: RBA-2 (IC50, adenosine A2 receptor affinity)). In addition, the “Inhibition of Mouse Locomotor Activity” value in test [3] (3.0 mg/kg i.p.) worked out at 26%; in test [3] (10 mg/kg i.p.), 47%; in test [3] (30 mg/kg i.p.), 71%.

Turning to `C[C@H]1O[C@@H](n2cnc3c(NCC4COC(C)(C)O4)ncnc32)[C@H](O)[C@@H]1O` (stereo partly drawn) [Example 7, (R,S)-N^6-[2,3-Dihydroxypropyl-isopropylidine]-5'-deoxyadenosine], the “Screen Test Failure” value turned out to be 11% in test [1] (3.0 mg/kg i.p.), 0% in test [1] (10 mg/kg i.p.) and 0% in test [1] (30 mg/kg i.p.). Also, in test [2] (setting [5]), the IC50 was 8.8 µM. Besides, the “Inhibition of Mouse Locomotor Activity” value in test [3] (3.0 mg/kg i.p.) is recorded as 13%; in test [3] (10 mg/kg i.p.), 18%; in test [3] (30 mg/kg i.p.), 69%. Further, in test [4] (at 1 × 10^-4 M, read-out: RBA-2 Inhib), the inhibition at 100 µM stood at 23%.

With `CC(C)CC(=O)OCC(CNc1ncnc2c1ncn2[C@@H]1O[C@H](COC(=O)CC(C)C)[C@@H](OC(=O)CC(C)C)[C@H]1OC(=O)CC(C)C)OC(=O)CC(C)C` (stereo partly drawn) [Example 11, N-6[2,3-Dihydroxypropyl-2,3-di-O-isovaleroyl]-2',3',5'-tri-O-isovaleroyl adenosine], the entries for the “Screen Test Failure” value in test [1] (3.0 mg/kg i.p.), in test [1] (10 mg/kg i.p.) and in test [1] (30 mg/kg i.p.) were 22%, 55% and 100%, respectively. The “Inhibition of Mouse Locomotor Activity” value in test [3] (3.0 mg/kg i.p.) is 59%; in test [3] (10 mg/kg i.p.) it was 91%; in test [3] (30 mg/kg i.p.) it was 79%.
